Source: publication PMC9077138, “An investigation on 3-acetyl-7-methoxy-coumarin Schiff bases and their Ru(II) metallates with potent antiproliferative activity and enhanced LDH and NO release” (RSC Advances, 2018)

Columns and labels:
[1] = tested on: human breast cancer cell line MCF-7; experiment: MTT cytotoxicity assay; type: cell-based; settings: MTT, 48 h; read-out: IC50 values MCF-7
Source text: (§1) The DNA/protein binding studies, antioxidant and antimicrobial studies had shown that the ligands and ruthenium(II) complexes studied here have therapeutic potentials and were subjected to study their anticancer activity. A number of coumarin derivatives have shown considerable anticancer activity against a number of cell lines. All the 3-acetyl-7-methoxy-coumarin-4(N)-substituted thiosemicarbazone ligands, metal precursor [RuHClCO(PPh3)3] and their new cyclometallated Ru(II) complexes were assessed for their cytotoxicity with two human derived cell lines namely human lung carcinoma (A549) and human breast cancer cells (MCF-7) by using MTT assay. For comparison purpose, cisplatin was used as a positive control under identical conditions.
(§2) Cytotoxic activity of the compounds was tested with human lung cancer cell lines A549, human breast cancer cell lines MCF-7 and human normal keratinocyte cells (HaCaT) by using MTT assay, which was done according to the earlier literature methods[77] and IC50 values obtained from nonlinear regression using GraphPad Prism 5.[78] The LDH release[79] and NO release[80] assays of the compounds was evaluated by the earlier reported methods.

[2] = tested on: human lung carcinoma cancer cell line A549; experiment: MTT cytotoxicity assay; type: cell-based; settings: MTT, 48 h; read-out: IC50 values A549
Source text: as §1, §2

[3] = tested on: human normal keratinocyte cells (HaCaT); experiment: MTT cytotoxicity assay; type: cell-based; settings: MTT, 48 h, normal cells; read-out: IC50 values HaCaT
Method: In order to investigate the selectivity of the compounds for cancer cells rather than normal cell lines, the compounds were also screened for their anticancer activity on the human normal keratinocyte cells (HaCaT).
as §2

C. albicans = experiment: In vitro antifungal assay (zone of inhibition, MIC); type: cell-based, Candida albicans; settings: C. albicans
Method: (§3) The free ligands and their cyclometallated ruthenium(II) carbonyl complexes were screened for their in vitro antimicrobial activity against certain pathogenic bacterial and fungal species at three different concentrations using disc diffusion method.
(§4) Antimicrobial activities of [RuHClCO(PPh3)3], ligands H2L^1–4 and new organometallic Ru(II) complexes (1–4) were evaluated by agar well diffusion method[76] as reported, by taking Staphylococcus aureus, Streptococcus pneumonie, Pseudomonas aeruginosa, Salmonella paratyphi and fungus such as Candida albicans, Trichophyton rubrum, Aspergillus niger, Aspergillus fumigatus and Candida tropicalis. The above said all test organisms were obtained from the MTCC, Chandigarh, India and Microbiological laboratory, Coimbatore, Tamil Nadu, India. The antimicrobial activity of the test compounds was checked with various concentrations (25 μg ml^−1, 50 μg ml^−1 and 100 μg ml^−1) against all the test pathogens. Gentamicin and ketoconazole were used as positive controls to study the antibacterial and antifungal activities respectively. Each experiment was performed in triplicate and the results are represented as average zone of inhibition and minimum inhibitory concentration of all the test pathogens.

Trichophyton rubrum = experiment: as above; type: cell-based
Method: as §3, §4

Aspergillus niger = experiment: as above; type: cell-based
Method: as §3, §4

Aspergillus fumigatus = experiment: as above; type: cell-based
Method: as §3, §4

Candida tropicalis = experiment: as above; type: cell-based
Method: as §3, §4

S. aureus = experiment: In vitro antibacterial assay (zone of inhibition, MIC); type: cell-based, Staphylococcus aureus; settings: S. aureus
Method: as §3, §4

S. paratyphi = experiment: as above; type: cell-based, Salmonella paratyphi
Source text: The free ligands and their cyclometallated ruthenium(II) carbonyl complexes were screened for their in vitro antimicrobial activity against certain pathogenic bacterial and fungal species at three different concentrations using disc diffusion method. […] Tested complexes had better antimicrobial activity than the ligands against all pathogens. This may be explained by Tweedy's chelation theory.[61] Coordination of ligands reduce the polarity of the metal ion essentially by partial sharing of its positive charge with the donor groups within the chelate ring system formed during the coordination and leading to the increase in lipophilic nature of the central metal atom, which favours the effective permeation through the lipid layer of microorganism.[61,62] […] When tested against T. rubrum, the activity of the complexes in the order of 3 > 2 > 1 > 4. In antibacterial studies, the complex 3 was effective against S. aureus followed by complex 2, 1 and 4 and in the case of S. pneumonie the activity of the complexes follows the order of 3 > 1 > 4 > 2. […] When tested against S. paratyphi complex 1 stood out as good followed by the complexes 4, 3 and 2 respectively.
as §4

P. aeruginosa = experiment: as above; type: cell-based, Pseudomonas aeruginosa; settings: P. aeruginosa
Method: as §3, §4

S. pneumonie = experiment: as above; type: cell-based, Streptococcus pneumonie; settings: S. pneumonie
Method: as §3, §4

[4] = Total antioxidant capacity, phosphomolybdate method
Method: (§5) It has been reported that free radical species such as reactive oxygen species (ROS), are involved in the pathogenesis of various diseases through effects on DNA directly and by acting as a tumour promoter.[59,60] The DPPH free radical scavenging activity of the ligands and complexes were studied and quantitatively antioxidant properties were determined by using phosphomolybdate method. We knew that the inhibitory effects of the tested compounds on DPPH radical are concentration dependent and the suppression ratio increases with increasing sample concentrations (Fig. S36 ^†). […] In the phosphomolybdenum assay, the antioxidant activity is expressed as the number of equivalents of ascorbic acid (Table 6). The total antioxidant activity of the compounds is in the following order complex 3 > complex 2 > complex 1 > complex 4 > H2L^3 > H2L^2 > H2L^1 > H2L^4 > ascorbic acid > [RuHClCO(PPh3)3]. The results concluded that the metal complexes are better antioxidants than their parent ligands which may be due to the chelation of the ligands to metal ion.[35] The radical scavenging ability of the new complexes is greater than that of few other reported ruthenium complexes, containing Schiff base ligands.[9]
(§6) The DPPH radical scavenging activity of the compounds have been carried out according to the reported method.[74] In this study, various concentrations of the experimental standard ascorbic acid, [RuHCl(CO)(PPh3)3], ligands (20–100 μM) and complexes (2–10 μM) in methanol were taken. Total antioxidant activity of the compounds was determined by the phosphomolybdate method.[75]

[5] = DPPH radical scavenging assay; settings: in methanol
Method: as §5, §6

Which IC50 [1] does the source give for `N.N.[Cl][Pt][Cl]` [Cisplatin, reference compound] here?
Its IC50 is 16.79 ± 0.08 µM.

What about the IC50 [2] of the same molecule?
The IC50 was 15.1 ± 0.05 µM.

And the IC50 [3]?
The IC50 was > 40 µM.

For `CC(=O)N1CCN(c2ccc(OCC3COC(Cn4ccnc4)(c4ccc(Cl)cc4Cl)O3)cc2)CC1` (stereo not shown) [Ketaconazole, reference compound], which zone of inhibition at 25 µg/mL (C. albicans; Candida albicans, 25 µg/ml) is on record?
The zone of inhibition at 25 µg/mL was 20.34 ± 0.2 mm.

What about the zone of inhibition at 25 µg/mL (Trichophyton rubrum; 25 µg/ml) of the same molecule?
The zone of inhibition at 25 µg/mL was 24.12 ± 0.16 mm.

What about the zone of inhibition at 25 µg/mL (Aspergillus niger; 25 µg/ml) of the same molecule?
The zone of inhibition at 25 µg/mL was 21.89 ± 0.11 mm.

What about the zone of inhibition at 25 µg/mL (Aspergillus fumigatus; 25 µg/ml) of the same molecule?
Its zone of inhibition at 25 µg/mL is 23 ± 0.25 mm.

And the zone of inhibition at 25 µg/mL (Candida tropicalis; 25 µg/ml)?
The zone of inhibition at 25 µg/mL was 19.5 ± 0.23 mm.

Which “Minimum inhibitory concentration (MIC); head: IC50 VALUES” (“Minimum inhibitory concentration (MIC)” below) (S. aureus) does the source give for `[C-]#[O+].[Cl][RuH].c1ccc(P(c2ccccc2)c2ccccc2)cc1.c1ccc(P(c2ccccc2)c2ccccc2)cc1.c1ccc(P(c2ccccc2)c2ccccc2)cc1` [[RuHClCO(PPh3)3], reference compound] here?
The value was 35.84 ± 0.37 µM.

And the Zone of inhibition (S. aureus; 50 µg/ml)?
The Zone of inhibition was 15.19±0.08 mm.

And the Zone of inhibition (S. aureus; 100 µg/ml)?
The Zone of inhibition was 17.67±0.78 mm.

What about the “Minimum inhibitory concentration (MIC)” value (C. albicans) of the same molecule?
The value was 26.09 ± 0.48 µM.

And the Zone of inhibition (C. albicans; 50 µg/ml)?
The Zone of inhibition was 13.29±0.45 mm.

What about the Zone of inhibition (C. albicans; 100 µg/ml) of the same molecule?
The Zone of inhibition was 16.67±0.11 mm.

And the “Minimum inhibitory concentration (MIC)” value (Trichophyton rubrum)?
Its value is 31.76 ± 0.42 µM.

And the Zone of inhibition (Trichophyton rubrum; 50 µg/ml)?
Its Zone of inhibition is 14.18±0.54 mm.

What about the Zone of inhibition (Trichophyton rubrum; 100 µg/ml) of the same molecule?
Its Zone of inhibition is 17.91±0.24 mm.

And the “Minimum inhibitory concentration (MIC)” value (Aspergillus niger)?
Its value is 31.63 ± 0.59 µM.

And the Zone of inhibition (Aspergillus niger; 50 µg/ml)?
Its Zone of inhibition is 13.19±0.34 mm.

And the Zone of inhibition (Aspergillus niger; 100 µg/ml)?
The Zone of inhibition was 15.14±0.31 mm.

And the “Minimum inhibitory concentration (MIC)” value (Aspergillus fumigatus)?
Its value is 29.75 ± 0.54 µM.

And the Zone of inhibition (Aspergillus fumigatus; 50 µg/ml)?
Its Zone of inhibition is 15.58±0.65 mm.

And the Zone of inhibition (Aspergillus fumigatus; 100 µg/ml)?
The Zone of inhibition was 18.38±0.65 mm.

What about the “Minimum inhibitory concentration (MIC)” value (Candida tropicalis) of the same molecule?
The value was 28.79 ± 0.41 µM.

And the Zone of inhibition (Candida tropicalis; 50 µg/ml)?
Its Zone of inhibition is 14.78±0.43 mm.

And the Zone of inhibition (Candida tropicalis; 100 µg/ml)?
Its Zone of inhibition is 18.59±0.41 mm.

And the Zone of inhibition (S. paratyphi; 50 µg/ml)?
The Zone of inhibition was 13.29±0.65 mm.

What about the Zone of inhibition (S. paratyphi; 100 µg/ml) of the same molecule?
The Zone of inhibition was 17.44±0.55 mm.

And the “Minimum inhibitory concentration (MIC)” value (P. aeruginosa)?
The value was 30.19 ± 0.53 µM.

And the Zone of inhibition (P. aeruginosa; 50 µg/ml)?
The Zone of inhibition was 15.78±0.44 mm.

What about the Zone of inhibition (P. aeruginosa; 100 µg/ml) of the same molecule?
Its Zone of inhibition is 17.89±0.42 mm.

What about the “Minimum inhibitory concentration (MIC)” value (S. pneumonie) of the same molecule?
Its value is 33.05 ± 0.28 µM.

And the Zone of inhibition (S. pneumonie; 50 µg/ml)?
The Zone of inhibition was 14.39±0.34 mm.

What about the Zone of inhibition (S. pneumonie; 100 µg/ml) of the same molecule?
The Zone of inhibition was 16.44±0.11 mm.

What about the IC50 [1] of the same molecule?
The IC50 was 20.1 ± 0.18 µM.

And the IC50 [2]?
The IC50 was 16 ± 0.21 µM.

What about the IC50 [3] of the same molecule?
The IC50 was > 40 µM.

And the Total antioxidant capacity [4]?
Its Total antioxidant capacity is 07.02 ± 0.08 μg ascorbic acid equivalents/ml.

For `CNC(C)C1CCC(N)C(OC2C(N)CC(N)C(OC3OCC(C)(O)C(NC)C3O)C2O)O1` (stereo not shown) [Gentamicin, reference compound], which zone of inhibition at 25 µg/mL (S. aureus; Staphylococcus aureus, 25 µg/ml) is on record?
The zone of inhibition at 25 µg/mL was 20.3 ± 0.43 mm.

What about the zone of inhibition at 25 µg/mL (S. paratyphi; Salmonella enterica, 25 µg/ml) of the same molecule?
Its zone of inhibition at 25 µg/mL is 20.4 ± 0.44 mm.

And the zone of inhibition at 25 µg/mL (P. aeruginosa; Pseudomonas aeruginosa, 25 µg/ml)?
The zone of inhibition at 25 µg/mL was 20.2 ± 0.22 mm.

And the zone of inhibition at 25 µg/mL (S. pneumonie; Streptococcus, 25 µg/ml)?
Its zone of inhibition at 25 µg/mL is 20.3 ± 0.39 mm.

For `O=C1O[C@H]([C@@H](O)CO)C(O)=C1O` [vitamin C, ascorbic acid, reference compound], which IC50 [5] is on record?
The IC50 was 98.7 ± 1.5 µM.
